Measurements taken from ChEMBL document CHEMBL1201862, “PubChem BioAssay data set” (2004).
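All cell lines were grown in 96-well plates and treated with compound for 48 hours. GI50 marks 50% less growth.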 Active and inactive are the calls of the source. No stated cut-off is given here; in the data, active = GI50 up to about 1.1 µM and inactive = higher.

Legend:
Experiment in all cases: growth of human tumour cells (NCI), 48 h
M19-MEL = test system: M19-MEL
HOP-18 = test system: HOP-18
LXFL 529 = test system: LXFL 529
SNB-78 = test system: SNB-78
DU-145 = test system: DU-145
786-0 = test system: 786-0
Hs-578T = test system: Hs-578T
DMS-114 = test system: DMS-114
RXF 631 = test system: RXF 631

Compound | GI50 (M19-MEL) | GI50 (HOP-18) | GI50 (LXFL 529) | GI50 (SNB-78) | GI50 (DU-145) | GI50 (786-0) | GI50 (Hs-578T) | GI50 (DMS-114) | GI50 (RXF 631)
OCc1nnn2c1CCC2 | > 100 µM (inactive) | > 100 µM (inactive) | > 100 µM (inactive) | > 100 µM (inactive) |  |  |  |  | 
S=c1nc(Nc2ccc(Br)cc2)c2c3c(sc2[nH]1)CN(N1CCc2c(sc4[nH]c(=S)nc(Nc5ccc(Br)cc5)c24)C1)CC3 |  |  |  |  | 33.7 µM (inactive) | 8.13 µM (inactive) | > 50 µM (inactive) |  | 
CCC(=O)NC(OCC1(CC)COC1)(C(F)(F)F)C(F)(F)F |  |  |  |  | > 100 µM (inactive) |  | > 100 µM (inactive) |  | 
O=c1cnn(CCOCP(=O)(O)O)c(=O)[nH]1 |  |  |  |  | > 100 µM (inactive) |  | > 100 µM (inactive) |  | 
CC(=O)OCC1OC(n2cc(F)c(=O)[nH]c2=O)C(N)C(OC(C)=O)C1OC(C)=O (stereo not drawn) | > 100 µM (inactive) | > 100 µM (inactive) |  | > 100 µM (inactive) |  |  |  | > 100 µM (inactive) | 
O=C1Nc2ccccc2Nc2ccncc21 | > 100 µM (inactive) | > 100 µM (inactive) |  | > 100 µM (inactive) |  |  |  | > 100 µM (inactive) | 
S=c1sc2cscc2s1 | 18.5 µM (inactive) | 20.7 µM (inactive) | 20.2 µM (inactive) | 30.5 µM (inactive) |  | 19.8 µM (inactive) |  | 22.8 µM (inactive) | 24.9 µM (inactive)
Cc1c(N2C(=O)CS(=O)(=O)C2c2cccc(Oc3ccccc3)c2)c(=O)n(-c2ccccc2)n1C (stereo not drawn) |  |  |  |  | 71.6 µM (inactive) |  | 30.9 µM (inactive) |  | 
O=C(Nc1nc2ncn(CCNCc3ccccc3)c2c(=O)[nH]1)c1ccccc1 | > 100 µM (inactive) | > 100 µM (inactive) | > 100 µM (inactive) | > 100 µM (inactive) |  | > 100 µM (inactive) |  | > 100 µM (inactive) | 41.5 µM (inactive)
COc1ccc2[nH]c(Cl)c(/C=C3/C(=O)Nc4cc(C)c(OC)cc43)c2c1 |  |  |  |  | 14.3 µM (inactive) | 5.68 µM (inactive) | 3.81 µM (inactive) |  | 
CCN(CC)CCNCc1cc(Cl)cc2c1OCOC2 |  |  |  |  | > 10 µM (inactive) |  | > 10 µM (inactive) |  | 
CCn1cc(C(c2ccc(Cl)cc2)n2ccnc2)c2cc(Br)ccc21 (stereo not drawn) |  |  |  |  | 16.6 µM (inactive) |  | 18.7 µM (inactive) |  | 
CC(=O)OCC1=C(COC(C)=O)C(=O)c2c(O)ccc(O)c2C1=O | 1.73 µM (inactive) | 21 µM (inactive) | 2.55 µM (inactive) | 3.78 µM (inactive) |  |  |  | 11.2 µM (inactive) | 
Cc1[nH]c(=O)[nH]c(=O)c1/C=C/C(=O)NC(CO)C[S+]([O-])C[S+](C)[O-] (stereo not drawn) | 15 µM (inactive) | 59.3 µM (inactive) |  | 11.7 µM (inactive) |  |  |  | 11.1 µM (inactive) | 
CO/N=C1/c2sccc2[C@H](NC(=O)CNC(=O)OC(C)(C)C)[C@@H]1O |  |  |  |  | > 100 µM (inactive) |  | > 100 µM (inactive) |  | 
C/C=C1\NC(=O)[C@H]2CSSCCC=C[C@H](CC(=O)N[C@H](C(C)C)C(=O)N2)OC(=O)[C@H](C(C)C)NC1=O | 0.00252 µM (active) | 0.00412 µM (active) |  | 0.0446 µM (active) | 4.55e-05 µM (active) |  | 3.61e-05 µM (active) | 0.00291 µM (active) | 
O=C1CSc2sc(=S)sc2S1 | > 100 µM (inactive) | > 84.3 µM (inactive) |  | > 63.7 µM (inactive) |  |  |  | > 100 µM (inactive) | 
CN1C(=O)CN2C(Cl)(Cl)C2(c2ccccc2)c2cc(Cl)ccc21 (stereo not drawn) | > 100 µM (inactive) |  | > 100 µM (inactive) |  |  |  |  | > 100 µM (inactive) | 
CN(C)c1ccc(/C=N/c2ccc(Oc3ccc(Cl)cc3)c(Cl)c2)cc1 |  |  |  |  | 27.5 µM (inactive) |  | 15.4 µM (inactive) |  | 
